Where a name gives a salt, the structure may show the parent alone.

This assay deals with T1, recombinant human arginase 1 (Homo sapiens, UniProt P05089).
T1 sequence (P05089 1-322): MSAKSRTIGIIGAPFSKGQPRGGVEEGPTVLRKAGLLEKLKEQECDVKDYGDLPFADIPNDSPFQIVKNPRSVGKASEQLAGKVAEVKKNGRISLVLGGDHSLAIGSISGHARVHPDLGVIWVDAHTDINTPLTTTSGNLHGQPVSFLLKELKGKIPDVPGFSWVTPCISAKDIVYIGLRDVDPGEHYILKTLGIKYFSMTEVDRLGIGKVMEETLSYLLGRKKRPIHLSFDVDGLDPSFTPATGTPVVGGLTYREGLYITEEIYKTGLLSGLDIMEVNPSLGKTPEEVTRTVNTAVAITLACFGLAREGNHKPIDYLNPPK
Description: Arginase inhibitory activity test, enzymatic assay based on urea measurement (Arg 1).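 Also: enzyme incubated with L-arginine substrate and compound at 37 °C for 120 min, urea product detected colorimetrically by absorbance at 450 nm, background from wells lacking enzyme.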
Description: An enzymatic assay with recombinant human arginases 1 or 2 was used to measure inhibitory activity of the compounds. The assay is based on urea measurement, which is a product of L-arginine enzymatic degradation.
Briefly, arginase and the substrate solution containing L-arginine were incubated in the absence or presence of varying concentrations of compounds at 37° C. for 120 min. For the background correction, only the substrate solution was added without arginase. The urea detection reagent from QuantiChrome™ Urea assay kit (BioAssay Systems, CA) was added to develop the color product. After 60 min at room temperature, the absorbance was measured at 450 nm with CLARIOstar (BMG LABTECH). Urea was used as the standard.
With `C[C@@H](N)C(=O)NS(=O)(=O)N1C[C@H](CCCB(O)O)[C@](N)(C(=O)O)C1` (racemic) [Example 35, (rac)-trans-1-(N-alanylsulfamoyl)-3-amino-4-(3-boronopropyl)pyrrolidine-3-carboxylic acid, 2,2,2-trifluoroacetic acid salt (1:2)], the IC50 was 0.1 to 1 µM. For `CC1(C)[C@H]2C[C@@H]3OB(CCC[C@H]4CN(S(=O)(=O)NCCN)C[C@@]4(N)C(=O)O)O[C@]3(C)[C@@H]1C2` (racemic) [Example 36] the value was less than 0.1 µM. For `N=C(NC(=O)CN)N1C[C@H](CCCB(O)O)[C@](N)(C(=O)O)C1` (racemic) [Example 38, rac-(trans)-3-amino-4-(3-boronopropyl)-1-(N-glycylcarbamimidoyl)pyrrolidine-3-carboxylic acid, 2,2,2-trifluoroacetic acid salt (1:2)] the value was 0.1 to 1 µM; for `NC1(CNS(=O)(=O)N2C[C@H](CCCB(O)O)[C@](N)(C(=O)O)C2)COC1` (racemic) [Example 39, (rac)-trans-3-amino-1-(N-((3-aminooxetan-3-yl)methyl)sulfamoyl)-4-(3-boronopropyl)pyrrolidine-3-carboxylic acid, 2,2,2-trifluoroacetic acid salt (1:2)], 0.1 to 1 µM. For `NC1COCC1NS(=O)(=O)N1CC(CCCB(O)O)C(N)(C(=O)O)C1` (racemic) [Example 41, (rac)-trans-3-amino-1-(N-((trans)-4-aminotetrahydrofuran-3-yl)sulfamoyl)-4-(3-boronopropyl)pyrrolidine-3-carboxylic acid, 2,2,2-trifluoroacetic acid salt (1:2)] the value was 0.1 to 1 µM; for `CN(C1CNC1)S(=O)(=O)N1C[C@H](CCCB(O)O)[C@](N)(C(=O)O)C1` (racemic) [Example 42, (rac)-trans-3-amino-1-(N-(azetidin-3-yl)-N-methylsulfamoyl)-4-(3-boronopropyl)pyrrolidine-3-carboxylic acid, 2,2,2-trifluoroacetic acid salt (1:2)], less than 0.1 µM. `CC1(NS(=O)(=O)N2C[C@H](CCCB(O)O)[C@](N)(C(=O)O)C2)CNC1` (racemic) [Example 43, (rac)-trans-3-amino-4-(3-boronopropyl)-1-(N-(3-methylazetidin-3-yl)sulfamoyl)pyrrolidine-3-carboxylic acid, 2,2,2-trifluoroacetic acid salt (1:2)]: the IC50 lay in the range of 0.1 to 1 µM.

In the case of `CN1CCN(S(=O)(=O)N2C[C@H](CCCB(O)O)[C@](N)(C(=O)O)C2)CC1` (racemic) [Example 44, (racemic)-trans-3-amino-4-(3-boronopropyl)-1-((4-methylpiperazin-1-yl)sulfonyl)pyrrolidine-3-carboxylic acid, 2,2,2-trifluoroacetic acid salt (1:2)], the concentration for half-maximal inhibition (IC50) is 0.1 to 1 µM. For `CN(C)CCN(C)S(=O)(=O)N1C[C@H](CCCB(O)O)[C@](N)(C(=O)O)C1` (racemic) [Example 45, (racemic)-trans-3-amino-4-(3-boronopropyl)-1-(N-(2-(dimethylamino)ethyl)-N-methylsulfamoyl)pyrrolidine-3-carboxylic acid, 2,2,2-trifluoroacetic acid salt (1:2)] the value was 0.1 to 1 µM; for `CNCCNS(=O)(=O)N1C[C@H](CCCB(O)O)[C@](N)(C(=O)O)C1` (racemic) [Example 46, (racemic)-trans-3-amino-4-(3-boronopropyl)-1-(N-(2-(methylamino)ethyl)sulfamoyl)pyrrolidine-3-carboxylic acid, 2,2,2-trifluoroacetic acid salt (1:2)], 0.1 to 1 µM. As to `CNCCN(C)S(=O)(=O)N1C[C@H](CCCB(O)O)[C@](N)(C(=O)O)C1` (racemic) [Example 47, (racemic)-trans-3-amino-4-(3-boronopropyl)-1-(N-methyl-N-(2-(methylamino)ethyl)sulfamoyl)pyrrolidine-3-carboxylic acid, 2,2,2-trifluoroacetic acid salt (1:2)], the IC50 was less than 0.1 µM.

One may read the IC50 as the concentration that inhibits the measured activity by half.
